What was measured:
Test in all cases: normalized area under the dose-response curve (viability relative to DMSO control) (fraction); higher = less sensitive (more viable cells)
Conditions in all cases: exposure time not given
AMO1 (cancer type: MM) = test system: AMO1 (cancer type: MM)
Method: (§1)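 25 myeloma and 15 non-Hodgkin lymphoma cell lines were exposed to each of 76 drugs as 7-point log dilutions (0.01 nM–10 µM) in duplicate. Viability was read with CellTiter-Glo and normalised to DMSO (0.1%) and staurosporine (10 µM) plate controls. Normalised AUC was calculated by the trapezoidal method relative to the negative control.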

EJM (cancer type: MM) = test system: EJM (cancer type: MM)
Method: as §1

FR4 (cancer type: MM) = test system: FR4 (cancer type: MM)
Method: as §1

[1] = test system: Granta-519 (cancer type: Mantle)
Method: as §1

[2] = test system: HuT 78 (cancer type: TCL)
Method: as §1

JJN3 (cancer type: MM) = test system: JJN3 (cancer type: MM)
Method: as §1

[3] = test system: JVM2 (cancer type: Mantle)
Method: as §1

[4] = test system: JeKo-1 (cancer type: Mantle)
Method: as §1

KMS11 (cancer type: MM) = test system: KMS11 (cancer type: MM)
Method: as §1

[5] = test system: KMS12PE (cancer type: MM)
Method: as §1

KMS18 (cancer type: MM) = test system: KMS18 (cancer type: MM)
Method: as §1

KMS26 (cancer type: MM) = test system: KMS26 (cancer type: MM)
Method: as §1

[6] = test system: KMS28BM (cancer type: MM)
Method: as §1

[7] = test system: KMS28PE (cancer type: MM)
Method: as §1

KMS34 (cancer type: MM) = test system: KMS34 (cancer type: MM)
Method: as §1

[8] = test system: Karpas-299 (cancer type: TCL)
Method: as §1

L363 (cancer type: MM) = test system: L363 (cancer type: MM)
Method: as §1

LP1 (cancer type: MM) = test system: LP1 (cancer type: MM)
Method: as §1

MM1.R (cancer type: MM) = test system: MM1.R (cancer type: MM)
Method: as §1

MM1.S (cancer type: MM) = test system: MM1.S (cancer type: MM)
Method: as §1

[9] = test system: Mino (cancer type: Mantle)
Method: as §1

My-La (cancer type: TCL) = test system: My-La (cancer type: TCL)
Method: as §1

[10] = test system: NCI-H929 (cancer type: MM)
Method: as §1

[11] = test system: OCI-LY1 (cancer type: DLBCL)
Method: as §1

[12] = test system: OCI-LY19 (cancer type: DLBCL)
Method: as §1

[13] = test system: OCI-LY3 (cancer type: DLBCL)
Method: as §1

[14] = test system: OCI-MY5 (cancer type: MM)
Method: as §1

[15] = test system: OCI-MY5/CRBN (cancer type: MM)
Method: as §1

[16] = test system: OCI-MY5/Vec (cancer type: MM)
Method: as §1

[17] = test system: OCI-MY7 (cancer type: MM)
Method: as §1

OPM2 (cancer type: MM) = test system: OPM2 (cancer type: MM)
Method: as §1

[18] = test system: RPMI 8226 (cancer type: MM)
Method: as §1

SKMM2 (cancer type: MM) = test system: SKMM2 (cancer type: MM)
Method: as §1

[19] = test system: SR-786 (cancer type: TCL)
Method: as §1

[20] = test system: SU-DHL1 (cancer type: TCL)
Method: as §1

[21] = test system: SU-DHL2 (cancer type: DLBCL)
Method: as §1

[22] = test system: SU-DHL6 (cancer type: DLBCL)
Method: as §1

Se-Ax (cancer type: TCL) = test system: Se-Ax (cancer type: TCL)
Method: as §1

U266 (cancer type: MM) = test system: U266 (cancer type: MM)
Method: as §1

XG2 (cancer type: MM) = test system: XG2 (cancer type: MM)
Method: as §1

| SMILES | normalized area under the dose-response curve (AMO1 (cancer type: MM)) | normalized area under the dose-response curve (EJM (cancer type: MM)) | normalized area under the dose-response curve (FR4 (cancer type: MM)) | normalized area under the dose-response curve [1] | normalized area under the dose-response curve [2] | normalized area under the dose-response curve (JJN3 (cancer type: MM)) | normalized area under the dose-response curve [3] | normalized area under the dose-response curve [4] | normalized area under the dose-response curve (KMS11 (cancer type: MM)) | normalized area under the dose-response curve [5] | normalized area under the dose-response curve (KMS18 (cancer type: MM)) | normalized area under the dose-response curve (KMS26 (cancer type: MM)) | normalized area under the dose-response curve [6] | normalized area under the dose-response curve [7] | normalized area under the dose-response curve (KMS34 (cancer type: MM)) | normalized area under the dose-response curve [8] | normalized area under the dose-response curve (L363 (cancer type: MM)) | normalized area under the dose-response curve (LP1 (cancer type: MM)) | normalized area under the dose-response curve (MM1.R (cancer type: MM)) | normalized area under the dose-response curve (MM1.S (cancer type: MM)) | normalized area under the dose-response curve [9] | normalized area under the dose-response curve (My-La (cancer type: TCL)) | normalized area under the dose-response curve [10] | normalized area under the dose-response curve [11] | normalized area under the dose-response curve [12] | normalized area under the dose-response curve [13] | normalized area under the dose-response curve [14] | normalized area under the dose-response curve [15] | normalized area under the dose-response curve [16] | normalized area under the dose-response curve [17] | normalized area under the dose-response curve (OPM2 (cancer type: MM)) | normalized area under the dose-response curve [18] | normalized area under the dose-response curve (SKMM2 (cancer type: MM)) | normalized area under the dose-response curve [19] | normalized area under the dose-response curve [20] | normalized area under the dose-response curve [21] | normalized area under the dose-response curve [22] | normalized area under the dose-response curve (Se-Ax (cancer type: TCL)) | normalized area under the dose-response curve (U266 (cancer type: MM)) | normalized area under the dose-response curve (XG2 (cancer type: MM)) |
| --- | --- | --- | --- | --- | --- | --- | --- | --- | --- | --- | --- | --- | --- | --- | --- | --- | --- | --- | --- | --- | --- | --- | --- | --- | --- | --- | --- | --- | --- | --- | --- | --- | --- | --- | --- | --- | --- | --- | --- | --- |
| CS(=O)(=O)c1ccc(C(=O)Nc2ccc(Cl)c(-c3ccccn3)c2)c(Cl)c1 [Vismodegib] | 0.871 | 0.901 | 1.02 | 0.924 | 0.9 | 0.906 | 0.819 | 0.878 | 0.93 | 0.94 | 0.995 | 0.838 | 0.948 | 0.871 | 0.801 | 0.895 | 0.859 | 0.906 | 0.88 | 0.85 | 0.911 | 0.873 | 0.87 | 0.967 | 0.827 | 0.939 | 0.826 | 0.942 | 0.922 | 0.94 | 0.932 | 0.889 | 1.01 | 0.858 | 0.807 | 0.94 | 0.864 | 0.765 | 0.896 | 0.867 |
| O=C(CCCCCCC(=O)Nc1ccccc1)NO [Vorinostat] | 0.482 | 0.607 | 0.521 | 0.717 | 0.43 | 0.649 | 0.598 | 0.421 | 0.627 | 0.63 | 0.855 | 0.551 | 0.56 | 0.542 | 0.554 | 0.426 | 0.635 | 0.637 | 0.55 | 0.46 | 0.449 | 0.672 | 0.35 | 0.432 | 0.443 | 0.469 | 0.4 | 0.517 | 0.427 | 0.51 | 0.767 | 0.721 | 0.781 | 0.533 | 0.519 | 0.528 | 0.672 | 0.331 | 0.738 | 0.692 |
| Cc1cccc(/C=N/Nc2cc(N3CCOCC3)n3nc(-c4ccncc4)cc3n2)c1 [apy0201] | 0.415 | 0.769 | 0.578 | 0.93 | 0.57 | 0.311 | 0.831 | 0.681 | 0.508 | 0.41 | 0.756 | 0.688 | 0.822 | 0.736 | 0.269 | 0.648 | 0.516 | 0.81 | 0.69 | 0.65 | 0.709 | 0.885 | 0.43 | 0.655 | 0.634 | 0.863 | 0.447 | 0.867 | 0.794 | 0.65 | 0.504 | 0.706 | 0.826 | 0.601 | 0.682 | 0.897 | 0.77 | 0.673 | 0.564 | 0.511 |
| Cc1sc2c(c1C)C(c1ccc(Cl)cc1)=N[C@@H](CC(=O)OC(C)(C)C)c1nnc(C)n1-2 [jq1] | 0.48 | 0.703 | 0.613 | 0.899 | 0.566 | 0.57 | 0.564 | 0.684 | 0.654 | 0.65 | 0.813 | 0.475 | 0.78 | 0.647 | 0.501 | 0.661 | 0.529 | 0.65 | 0.55 | 0.53 | 0.598 | 0.747 | 0.53 | 0.812 | 0.679 | 0.707 | 0.488 | 0.645 | 0.57 | 0.39 | 0.671 | 0.616 | 0.672 | 0.647 | 0.674 | 0.635 | 0.829 | 0.566 | 0.852 | 0.747 |
| Cc1sc2c(c1C)C(c1ccc(Cl)cc1)=N[C@@H](CC(=O)Nc1ccc(O)cc1)c1nnc(C)n1-2 [otx-015] | 0.497 | 0.685 | 0.732 | 0.902 | 0.859 | 0.568 | 0.609 | 0.84 | 0.656 | 0.59 | 0.713 | 0.395 | 0.801 | 0.681 | 0.514 | 0.628 | 0.545 | 0.701 | 0.61 | 0.56 | 0.595 | 0.796 | 0.54 | 0.752 | 0.637 | 0.759 | 0.491 | 0.641 | 0.563 | 0.4 | 0.7 | 0.642 | 0.657 | 0.695 | 0.729 | 0.558 | 0.757 | 0.657 | 0.62 | 0.622 |

— the supplement of paper PMC7214452
